Laboratory results taken from patent US4372948A, “Derivative of saccharide and physiologically active agent containing the same” (Kureha Kagaku Kogyo Kabushiki Kaisha, priority 1980, dated 1983).

What was measured:
[1] = in vivo; details: mouse, in vivo, po, mice, 7 days observation, read-out: LD50, acute oral toxicity
[2] = system: acetic acid writhing; assay: Analgetic activity against chemical stimulation of acetic acid (writhing); type: in vivo, mouse (ICR female); details: Mus musculus, po, 30 min before 0.6% acetic acid, read-out: I.R. of writhing
Source text: (§1) Rate of inhibition (I.R.) (%)=(1-T/C)×100
T represents the average number of writhing of the group of mice administered with the present compound and injected with acetic acid, and C represents the average number of writhing of the group of mice only injected with acetic acid (control).

[3] = system: pyrexia (Saccharomyces cerevisiae); assay: Anti-pyrexia activity (yeast-induced); type: in vivo; details: Rattus norvegicus, oral, read-out: Rate of inhibiting pyrexia (I.R.)
Description: Following the method of Winter et al. (1961), an aqueous dispersion of 20% by weight of Saccharomyces cerevisiae was subcutaneously injected into groups of rats, each group consisting of 6 animals, and after 10-hour fasting, 1000 mg/kg of each of the present compounds was orally administered to the rat as a solution of dispersion in distilled water, and then the rectal temperature of the rat was measured at a predetermined interval of time to find the lowest temperature.
The anti-pyrexia activity of each compound was obtained from the following formula: […]
Anti-pyrexia activity represented by the rate of inhibition (I.R.)
C2 represents the average rectal temperature of negative control (non-treatment), not injected with the yeast and not administered with the present compound,
C1 represents the average temperature of positive control, injected with the yeast and not administered with the compound and T represents the temperature of tested animals, injected with the yeast and administered with the present compound.

[4] = system: blood pressure; assay: Anti-hypertension activity (reduction of blood pressure); type: in vivo, rat (spontaneous hypertension); details: oral, 300 mg/kg
Description: Rats of spontaneous hypertension were orally administered with each of the present compounds as a solution or dispersion in distilled water at a dose rate of 300 mg/kg body weight. After 3 and 6 hours of the administration, the blood pressure of each rat was determined, and the difference between the above-determined value and the value just before the administeration was used as the index of the activity of reducing the blood pressure of the compound.

[5] = system: cotton pellet granuloma; assay: Anti-granuloma activity (cotton pellet); type: in vivo, rat; details: Rattus norvegicus, po, 192 h, 7 days, read-out: I.R. against cotton pellet edema
Description: Following the method of Winter et al. (1963), each two cotton wool pellets, each weighing 30±1 mg, were implanted into the back of each rats of groups of rats, each group consisting of 6 animals, at the positions of mutually symmetrical concerning the median line of the rat. To these groups of the thus operated rats, the present compounds were respectively administered orally and forcibly as a solution or dispersion in distilled water for 7 continuous days, once a day at a dose of 1000 mg/kg/day. On 8th day of the implantation, the granuloma was extirpated and the dry weight of the granuloma was measured, the rate of inhibiting the proliferation of granuloma being obtained as in (5-1) being shown in Table 8.

[6] = system: beta-lipoprotein; assay: Anti-hyperlipemia activity, beta-lipoprotein in blood; type: in vivo, rabbit (Japanese white male); details: oral, 300 mg/kg once
Description: (§2) Japanese white male rabbits were fed for 3 months with a solid diet containing 1% of cholesterol taken ad lib, and after confirming the raised lipid content of the serum of the rabbits, they were utilized as model animals suffering from experimental arteriosclerosis. Each of the present compounds was administered orally as a solution or dispersion in distilled water to the experimental animals of each group at a dose rate of 300 mg/kg once, and blood samples were taken at a predetermined time interval from the auricular vein of each animal. The content of cholesterol in the blood specimen was traced as the time passed by, with an enzymatic method, and the content of beta-lipoprotein in the same blood specimen was traced with a colorimetry. Each value in Table 7 is the difference between the level just before administration and the level after 3 or 6 hours of the administration.

[7] = system: Sarcoma-180; assay: Anti-tumour activity against Sarcoma-180; type: in vivo, mouse (ICR-JCL); details: Mus musculus, Sarcoma-180, po, 600 h, 10 times every other day, tumour weight on 25th day, read-out: Antitumour activity, inhibiting rate (I.R.)
Description: Sarcoma-180 was transplanted into the axillary part of ICR-JCL mice at a rate of 1×10^6 cells/animal, and after 24 hours of transplantation, each of the present compounds as a solution or dispersion in sterilized physiological saline solution was orally administered to each of the transplanted mice 10 times every other day at a dose of 500 mg/kg/time. On 25th day of the transplantation, tumour node(s) were extirpated from all the mice to determine the weight of the tumour nodes.
Antitumour activity (activity of inhibiting the proliferation of the transplanted sarcoma) of each of the present compounds was derived by the following formula and shown in Table 6:
Antitumour activity (Inhibiting rate, I.R.)=(1-T/C)×100(%).
T represents the total weight of tumour nodes of the group of mice transplanted and administered with the present compound, and
C represents the total weight of tumour nodes of the group of mice transplanted, however, not administered with any agents.

[8] = system: total cholesterol; assay: Anti-hyperlipemia activity, total cholesterol in blood; type: in vivo, rabbit (Japanese white male); details: oral, 300 mg/kg once; for Reduction of cholesterol level after 3 hrs.: negative = raising
Description: as §2

[9] = system: carrageenin edema; assay: Anti-Carrageenin edema activity; type: in vivo, rat; details: Rattus norvegicus, po, 1000 mg/kg once, read-out: I.R. against carrageenin edema
Description: After orally administering each of the present compounds forcibly to each group of rats, composed of 10 animals, as a solution or dispersion in distilled water at a dose of 1000 mg/kg once, 0.1 ml of an aqueous dispersion of 1% carrageenin in aqueous physiological saline solution was injected into the foot pad of the right hind leg of the administered animal following Van Arman et al. (1963). Thereafter, the thickness of the foot pad was measured at a time interval to find the rate of inhibiting of the swelling of the foot pad according to the following formula:
as §1
T means the average volume of the foot pad of the animals administered with one of the present compounds and carrageenin, and
C means that of the animal not administered with the present compound, however, administered with carrageenin.

[10] = system: exudation; assay: Anti-exudation activity (air pouch, croton oil); type: in vivo, rat; details: Rattus norvegicus, po, 144 h, 5 days, read-out: I.R. against exudation
Description: Following the method of Baris et al. (1965), air was injected subcutaneously into the back of groups of rats, each group consisting of 6 animals to make an air pouch, and 0.5 ml of sesame oil containing 1% by weight of croton oil was injected into the air pouch. Each of the present compounds was orally administered forcibly to each of the groups of rats as a solution or dispersion in distilled water at a dose rate of 1000 mg/kg/day for continued five days. The amount of liquid exudated into the air pouch was measured on 6th day of the operation. The rate of inhibiting the exudation of the liquid was obtained by the same manner as in (5-2) and the results are shown also in Table 8.

[11] = system: level of blood sugar; assay: Anti-hyperglycemia activity (reduction of blood sugar level); type: in vivo, rat (Wistar, streptozotocin); details: oral, 300 mg/kg
Description: A group of Wistar rats to which at first streptozotocin was interperitoneally administered at a rate of 60 mg/kg and of which the positivity of glycosuria was confirmed after a week of the administration and to which regular insulin was further administered and of which the reduction of levels of glucose in urine and blood was once confirmed, however, of which hyperglycemia and hyperglycosuria were again confirmed after a few days was chosen and used as model animals of glycosuria in the following test. After orally administering each of the present compounds to the model animals at a dose of 300 mg/kg body weight, as a solution or dispersion in distilled water, the blood was collected two times, respectively after 3 and 6 hours of the administration.

[12] = system: pseudo-escaping reaction to tail pressure; assay: Analgetic activity against mechanical stimulation of pressure; type: in vivo, mouse (ICR female); details: oral, 1000 mg/kg

O=C(OCc1ccccc1)c1ccc(NC2(CO)OC[C@@H](O)[C@@H](O)[C@@H]2O)cc1 (stereo partly drawn) [Compound 15, benzyl p-aminobenzoate-N-D-fructoside] showed an LD50 at 168 h [1] of 11000 mg/kg, an inhibition in vivo at 1000 mg/kg [2] of 19% and an inhibition in vivo at 1000 mg/kg [3] of 26%. For the same molecule, the “Reduced level of blood pressure after 3 hrs.” value [4] was 18 mm Hg, the “Reduced level of blood pressure after 6 hrs.” value [4] was 20 mm Hg and the inhibition in vivo at 1000 mg/kg/day [5] was 9%. For the same molecule, the “Reduction of beta-lipoprotein level after 3 hrs.” value [6] was 150 mg/dL, the “Reduction of beta-lipoprotein level after 6 hrs.” value [6] was 154 mg/dL and the inhibition in vivo at 500 mg/kg [7] was 43%. For the same molecule, the “Reduction of cholesterol level after 3 hrs.” value [8] was -1 mg/dL, the “Reduction of cholesterol level after 6 hrs.” value [8] was 45 mg/dL and the inhibition in vivo at 1000 mg/kg [9] was 30.8%. For the same molecule, the inhibition in vivo at 1000 mg/kg/day [10] was 7.5%, the “Reduced level of blood sugar after 3 hrs.” value [11] was 72 mg/dL and the “Reduced level of blood sugar after 6 hrs.” value [11] was 85 mg/dL. The Pseudo-escapting reaction pressure [12] was 78 mmHg and the Pseudo-escapting reaction time [12] was 37 s.

For COC(=O)Cc1ccc(NC2O[C@@H](C)[C@H](O)[C@@H](O)[C@H]2O)cc1 (stereo partly drawn) [Compound 26, methyl p-aminophenylacetate-N-L-rhamnoside], the LD50 at 168 h [1] was 11200 mg/kg, the inhibition in vivo at 1000 mg/kg [2] was 34% and the inhibition in vivo at 1000 mg/kg [3] was 60%. For the same molecule, the “Reduced level of blood pressure after 3 hrs.” value [4] was 20 mm Hg, the “Reduced level of blood pressure after 6 hrs.” value [4] was 23 mm Hg and the inhibition in vivo at 1000 mg/kg/day [5] was 24.1%. The “Reduction of beta-lipoprotein level after 3 hrs.” value [6] was 123 mg/dL, the “Reduction of beta-lipoprotein level after 6 hrs.” value [6] was 133 mg/dL and the inhibition in vivo at 500 mg/kg [7] was 45%. The “Reduction of cholesterol level after 3 hrs.” value [8] was -3 mg/dL, the “Reduction of cholesterol level after 6 hrs.” value [8] was 51 mg/dL and the inhibition in vivo at 1000 mg/kg [9] was 5.3%. The inhibition in vivo at 1000 mg/kg/day [10] was 17.7%, the “Reduced level of blood sugar after 3 hrs.” value [11] was 90 mg/dL and the “Reduced level of blood sugar after 6 hrs.” value [11] was 136 mg/dL. It also gave a Pseudo-escapting reaction pressure [12] of 92 mmHg and a Pseudo-escapting reaction time [12] of 41 s.

In the case of O=C(Oc1ccccc1)c1cccc(NC2O[C@H](CO)[C@@H](O)[C@H](O)[C@@H]2O)c1 (stereo partly drawn) [Compound 7, phenyl m-aminobenzoate-N-D-mannoside], the LD50 at 168 h [1] is reported as 14800 mg/kg, the inhibition in vivo at 1000 mg/kg [2] is reported as 46% and the inhibition in vivo at 1000 mg/kg [3] is reported as 31%. The “Reduced level of blood pressure after 3 hrs.” value [4] was 24 mm Hg, the “Reduced level of blood pressure after 6 hrs.” value [4] was 26 mm Hg and the inhibition in vivo at 1000 mg/kg/day [5] was 25.3%. For the same molecule, the “Reduction of beta-lipoprotein level after 3 hrs.” value [6] was 141 mg/dL, the “Reduction of beta-lipoprotein level after 6 hrs.” value [6] was 150 mg/dL and the inhibition in vivo at 500 mg/kg [7] was 49%. For the same molecule, the “Reduction of cholesterol level after 3 hrs.” value [8] was -2 mg/dL, the “Reduction of cholesterol level after 6 hrs.” value [8] was 62 mg/dL and the inhibition in vivo at 1000 mg/kg [9] was 5.9%. For the same molecule, the inhibition in vivo at 1000 mg/kg/day [10] was 7.5%, the “Reduced level of blood sugar after 3 hrs.” value [11] was 144 mg/dL and the “Reduced level of blood sugar after 6 hrs.” value [11] was 159 mg/dL. It also gave a Pseudo-escapting reaction pressure [12] of 95 mmHg and a Pseudo-escapting reaction time [12] of 44 s.

In the case of C[C@@H]1OC(Nc2ccc(C(N)=O)cc2)[C@H](O)[C@H](O)[C@H]1O (stereo partly drawn) [Compound 5, p-aminobenzoic acid amide-N-L-rhamnoside], the LD50 at 168 h [1] is reported as 10500 mg/kg, the inhibition in vivo at 1000 mg/kg [2] is reported as 52% and the inhibition in vivo at 1000 mg/kg [3] is reported as 59%. The “Reduced level of blood pressure after 3 hrs.” value [4] was 17 mm Hg, the “Reduced level of blood pressure after 6 hrs.” value [4] was 18 mm Hg and the inhibition in vivo at 1000 mg/kg/day [5] was 16.8%. For the same molecule, the “Reduction of beta-lipoprotein level after 3 hrs.” value [6] was 134 mg/dL, the “Reduction of beta-lipoprotein level after 6 hrs.” value [6] was 148 mg/dL and the inhibition in vivo at 500 mg/kg [7] was 39%. For the same molecule, the “Reduction of cholesterol level after 3 hrs.” value [8] was -1 mg/dL, the “Reduction of cholesterol level after 6 hrs.” value [8] was 32 mg/dL and the inhibition in vivo at 1000 mg/kg [9] was 4.2%. For the same molecule, the inhibition in vivo at 1000 mg/kg/day [10] was 12.4%, the “Reduced level of blood sugar after 3 hrs.” value [11] was 91 mg/dL and the “Reduced level of blood sugar after 6 hrs.” value [11] was 128 mg/dL. For the same molecule, the Pseudo-escapting reaction pressure [12] was 90 mmHg and the Pseudo-escapting reaction time [12] was 41 s.

With O=C(OCc1ccccc1)c1ccc(NC2C[C@H](O)[C@H](O)CO2)cc1 (stereo partly drawn) [Compound 13, benzyl p-aminobenzoate-N-D-deoxyriboside] the LD50 at 168 h [1] was 9200 mg/kg, the inhibition in vivo at 1000 mg/kg [2] was 24% and the inhibition in vivo at 1000 mg/kg [3] was 39%. For the same molecule, the “Reduced level of blood pressure after 3 hrs.” value [4] was 20 mm Hg, the “Reduced level of blood pressure after 6 hrs.” value [4] was 21 mm Hg and the inhibition in vivo at 1000 mg/kg/day [5] was 4.2%. The “Reduction of beta-lipoprotein level after 3 hrs.” value [6] was 135 mg/dL, the “Reduction of beta-lipoprotein level after 6 hrs.” value [6] was 144 mg/dL and the inhibition in vivo at 500 mg/kg [7] was 38%. For the same molecule, the “Reduction of cholesterol level after 3 hrs.” value [8] was 4 mg/dL, the “Reduction of cholesterol level after 6 hrs.” value [8] was 35 mg/dL and the inhibition in vivo at 1000 mg/kg [9] was 7%. For the same molecule, the inhibition in vivo at 1000 mg/kg/day [10] was 23.5%, the “Reduced level of blood sugar after 3 hrs.” value [11] was 108 mg/dL and the “Reduced level of blood sugar after 6 hrs.” value [11] was 113 mg/dL. For the same molecule, the Pseudo-escapting reaction pressure [12] was 82 mmHg and the Pseudo-escapting reaction time [12] was 40 s.
